These results are taken from BindingDB's records for doi:10.1016/j.chembiol.2007.02.007 (Massachusetts General Hospital, 2007).

Each structure is given as a SMILES string.

A word on the IC50: it is the concentration that gives 50% inhibition. Read a low IC50 as higher potency.

This test deals with Phosphatidylinositol 4,5-bisphosphate 3-kinase catalytic subunit alpha isoform (Homo sapiens, UniProt P42336). The test is described as follows: Enzyme Assay.
Phosphatidylinositol 4,5-bisphosphate 3-kinase catalytic subunit alpha isoform, sequence (P42336 whole entry, canonical isoform): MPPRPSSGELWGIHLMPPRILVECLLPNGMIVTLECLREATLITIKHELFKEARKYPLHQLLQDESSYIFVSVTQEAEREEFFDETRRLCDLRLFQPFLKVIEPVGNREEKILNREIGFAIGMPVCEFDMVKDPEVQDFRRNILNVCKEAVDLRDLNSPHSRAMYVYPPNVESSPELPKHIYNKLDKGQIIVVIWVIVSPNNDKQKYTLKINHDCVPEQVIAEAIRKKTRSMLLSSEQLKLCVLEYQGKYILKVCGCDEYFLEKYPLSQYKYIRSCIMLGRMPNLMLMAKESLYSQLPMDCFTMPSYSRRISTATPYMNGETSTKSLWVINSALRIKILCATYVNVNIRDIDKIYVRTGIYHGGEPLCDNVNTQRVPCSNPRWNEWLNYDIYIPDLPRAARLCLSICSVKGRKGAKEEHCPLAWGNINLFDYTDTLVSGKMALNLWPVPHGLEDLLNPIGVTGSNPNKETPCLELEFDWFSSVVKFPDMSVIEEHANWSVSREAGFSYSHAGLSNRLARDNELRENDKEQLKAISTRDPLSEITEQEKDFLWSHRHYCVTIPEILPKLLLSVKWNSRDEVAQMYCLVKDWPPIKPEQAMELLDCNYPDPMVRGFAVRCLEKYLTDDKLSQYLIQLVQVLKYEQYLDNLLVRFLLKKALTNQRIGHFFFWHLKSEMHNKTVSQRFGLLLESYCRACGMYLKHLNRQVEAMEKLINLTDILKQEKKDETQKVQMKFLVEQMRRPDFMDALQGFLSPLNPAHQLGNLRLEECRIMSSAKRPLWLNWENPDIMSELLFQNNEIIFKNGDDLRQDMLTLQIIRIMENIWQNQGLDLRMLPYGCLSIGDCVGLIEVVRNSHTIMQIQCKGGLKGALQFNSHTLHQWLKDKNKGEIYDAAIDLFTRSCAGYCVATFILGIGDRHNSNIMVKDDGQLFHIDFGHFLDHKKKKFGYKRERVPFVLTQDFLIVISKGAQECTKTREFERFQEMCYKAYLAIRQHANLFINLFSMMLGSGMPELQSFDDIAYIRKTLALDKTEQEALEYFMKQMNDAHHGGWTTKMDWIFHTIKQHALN
Description: Inhibition of PI3 kinase by WmC20 derivatives causing a formation of covalent bond between WmC20 derivatives and the target protein.
Regarding `COC[C@H]1OC(=O)C(=CN(C)CCCCCC(=O)O)C2C(=O)C(=O)C3=C([C@H](OC(C)=O)C[C@]4(C)C(=O)CC[C@@H]34)[C@]21C` (some centres undefined) [WmC20-NMeHA, 4], the IC50 is 108 nM. The same measure for `COC[C@H]1OC(=O)C(CSCC(NC(C)=O)C(=O)O)=C2C(=O)C(=O)C3=C([C@H](OC(C)=O)C[C@]4(C)C(=O)CCC34)[C@]21C` (some centres undefined) [WmC20-cys, 3]: 1140 nM; for `COC[C@H]1OC(=O)C(=CN2CCCC2C(=O)O)C2C(=O)C(=O)C3=C([C@H](OC(C)=O)C[C@]4(C)C(=O)CC[C@@H]34)[C@]21C` (some centres undefined) [WmC20-pro, 1]: 68 nM; for `COC[C@H]1OC(=O)C(=CNCCCCC(NC(C)=O)C(=O)O)C2C(=O)C(=O)C3=C([C@H](OC(C)=O)C[C@]4(C)C(=O)CC[C@@H]34)[C@]21C` (some centres undefined) [WmC20-lys, 2]: above 1000 nM.
